Test [1] deals with HIV-1 virus (NL4.3 strain). The experiment in a line: MT-2 based antiviral assay (S8737E). It counts as cell-based. From the text:
MT-2 Based Antiviral Assay (S8737E)
This assay is designed to determine the effects of small molecules on the replication of HIV-1 in the lymphobastoid cell line, MT2, and is able to detect the antiviral effect of compounds acting at any stage of the HIV-1 replication cycle. The assay, along with its associated cytotoxicity assay, was described in detail in 2005 in a paper by Cao et al (Antimicrobial Agents and Chemotherapy 2005; 49(9), p 3833-3841).
MT2 cells are infected with the HIV-1 virus (NL4.3 strain; Adachi et al., Journal of Virology 1986) and transferred to assay plates containing serial dilutions of compounds to be tested. The assay plates are incubated for 3 days (MT2) to allow for several rounds of viral replication/infection to take place. At the end of this time, supernatant is transferred into new plates containing JC53BL cells.
JC53BL cells express CXCR4, CCR5 and CD4 receptors, and HIV-1-LTR-β-Gal. Under normal culture conditions undetectable levels of β-Galactosidase are expressed, but in the presence of HIV-1, the viral Tat protein is able to activate the HIV-1-LTR in the JC53BL cells resulting in the increased expression of the β-Gal enzyme. The expression can be measured using the ‘FluorAce β-Galactosidase reporter’ assay. The levels of β-Gal are directly proportional to the levels of Tat (up to a threshold) allowing virus quantification. Compounds that inhibit virus replication will give rise to a reduced signal and a dose-response curve for each compound can be generated. This is then used to determine the IC50 for each compound, a measure of the compound's potency.

In test [2] the target is T1, LEDGF-Integrase interaction (Human immunodeficiency virus type 1 group M subtype B, UniProt P12497).
T1 construct: His6-tagged integrase (78 nM final concentration); purchased Prof; Zeger Debyser, Katholieke Universiteit Leuven (supplied by an academic laboratory, not a commercial vendor)
The experiment in a line: HTRF Interaction assay (S9118). Also on record: species or system HIV. The conditions noted are these: His6-tagged integrase and MBP-LEDGF integrase binding domain. The source says:
• Adachi, A., Gendelman, H., Koenig, S., Folks, T., Wiley, R., Rabson, A. and Martin, M (1986) Production of acquired immunodeficency syndrome-associated retrovirus in human and nonhuman cells transfected with an infectious molecular clone, J. Virol., 59, 284-291. • Cao J, Isaacson J, Patick A K, Blair W S. (2005) High-throughput human immunodeficiency virus type 1 (HIV-1) full replication assay that includes HIV-1 Vif as an antiviral target Antimicrobial Agents and Chemotherapy; 49(9), p 3833-3841. Assay to Measure the LEDGF-Integrase Integration Inhibitory Activity of Compounds of the Invention HTRF Interaction Assay (S9118)
An Homogeneous Time Resolved Fluorescence (HTRF) assay is performed in a manner similar to previous reports on HTRF protein assays as reviewed by Mathis (Clin. Chem., 2005). The assay procedure is performed as follows: reactions are performed in 20 μl final volume in 384-well black low volume microtiter plates (Greiner). The final reaction buffer contains 29 mM phosphase buffer (pH 7), 10 mM HEPES buffet (pH 7.4), 68.5 mM NaCl, 1.4 mM KCl, 400 mM KF 0.05% (w/v) pluronic acid (P104, Sigma Aldrich) and 1% (v/v) DMSO. His6-tagged integrase (78 nM final concentration) is incubated with […] fused to the Δ325 carboxy terminal integrase binding domain of LEDGF in the presence of compound for 2 hours at room temperature. Both these protein regents are supplied by Prof. Zeger Debyser of Katholleke Universiteit Leuven, Leuven, Belgium. The compounds are added at varying concentrations spanning a wide range from 0.1 up to 100 μM. Afterwards 8.3 nM of europium cryptate conjugated anti-MBP monoclonal antibody and 17 nM anti-His antibody conjugated with the acceptor fluorophore d2. Following a 2 hour room temperature incubation the plates are read on an EnVision™ microplate reader (Perkin Elmer) using an excitation wavelength of 320 nm. The ratio of fluorescence emitted at […] is used to assess the degree to which the protein-protein interaction had been inhibited.

[3] abbreviates: Human immunodeficiency virus 1, 72 h, read-out: Antiviral Activity (S8737E, μM), HIV-1 NL4.3 replication in MT2 cells, 3 days, β-Gal readout in JC53BL cells.

Where two headings read alike, the source gives them in different places. Some results are limits rather than exact numbers.

With `Cc1nc2sc3c(c2c(-c2ccc4cnn(C)c4c2)c1C(OC(C)(C)C)C(=O)O)CCCC3` (stereo not drawn) [Example 11], the IC50 in test [1] (read-out: Antiviral Activity (S8737E), HIV-1 NL4.3 replication in MT2 cells, 3 days, β-Gal readout in JC53BL cells) was determined as 0.814 µM; in test [2] (table values), 12.2 µM.

As for `Cc1nc2sc3c(c2c(-c2cccc(-n4cccn4)c2)c1C(OC(C)(C)C)C(=O)O)CCCC3` (stereo not drawn) [Example 38], the IC50 worked out at 15.1 µM in test [1] (setting [3]) and 97.5 µM in test [2] (table values).

In the case of `Cc1cc(-c2c(C(OC(C)(C)C)C(=O)O)c(C)nc3sc4c(c23)CCCC4)ccn1` (stereo not drawn) [Example 37], the IC50 was 13.9 µM in test [1] (setting [3]) and above 100 µM in test [2] (table values).

In the case of `CCOC(C(=O)O)c1c(C)nc2sc3c(c2c1-c1cnn(CC)c1)CCCC3` (stereo not drawn) [Example 41], the IC50 in test [1] (setting [3]) is 17.7 µM; in test [2] (table values) it was above 100 µM.

In the case of `Cc1nc2sc3c(c2c(-c2ccc4nccn4c2)c1C(OC(C)(C)C)C(=O)O)CCCC3` (stereo not drawn) [Example 17], the IC50 in test [1] (setting [3]) was 1.78 µM; in test [2] (table values), above 100 µM.

In the case of `CCOC(C(=O)O)c1c(C)nc2sc3c(c2c1-c1ccc2c(cnn2C)c1)CCCC3` (stereo not drawn) [Example 43], the IC50 in test [1] (setting [3]) was 18.9 µM; in test [2] (table values), above 100 µM.

Turning to `CCc1ccc(-c2c(C(OC(C)(C)C)C(=O)O)c(C)nc3sc4c(c23)CCCC4)c(O)c1` (stereo not drawn) [Example 5], the figures for the IC50 in test [1] (setting [3]) and in test [2] (table values) were 0.155 µM and 2.7 µM, respectively.

Turning to `Cc1nc2sc3c(c2c(-c2ccc(C(F)(F)F)cc2)c1[C@H](OC(C)(C)C)C(=O)O)CCCC3` [Example 50, (S)-2-(tert-butoxy)-2-(2-methyl-4-(4-(trifluoromethyl)phenyl)-5,6,7,8-tetrahydrobenzo[4.5]thieno[2,3-b]pyridin-3-yl)acetic acid], the IC50 in test [1] (setting [3]) worked out at 0.055 µM; in test [2], 1.5 µM.

Turning to `Cc1ccc(-c2c(C(OC(C)(C)C)C(=O)O)c(C)nc3sc4c(c23)CCOC4)cc1` (stereo not drawn) [Example 52, Tert-Butoxy-(2-methy-4-p-tolyl-5,8-dihydro-6H-7-oxa-9-thia-1-aza-fluoren-3-yl)-acetic acid], the IC50 is 0.189 µM in test [1] (setting [3]) and 2.75 µM in test [2].

With `Cc1nc2sc3c(c2c(-c2c[nH]c4nccc-4c2)c1C(OC(C)(C)C)C(=O)O)CCCC3` (stereo not drawn) [Example 36], the IC50 in test [1] (setting [3]) is 12 µM; in test [2] (table values), above 100 µM.

As for `Cc1nc2sc3c(c2c(-c2ccccc2O)c1C(OC(C)(C)C)C(=O)O)CCCC3` (stereo not drawn) [Example 16], the figures for the IC50 in test [1] (setting [3]) and in test [2] (table values) were 1.73 µM and 57.4 µM, respectively.

As for `Cc1nc2sc3c(c2c(-c2cnc4ccoc4c2)c1C(OC(C)(C)C)C(=O)O)CCCC3` (stereo not drawn) [Example 18], the IC50 was 1.84 µM in test [1] (setting [3]) and 30.3 µM in test [2] (table values).

As to `CCOC(C(=O)O)c1c(C)nc2sc3c(c2c1-c1ccc2cn[nH]c2c1)CCCC3` (stereo not drawn) [Example 23], the IC50 stood at 2.73 µM in test [1] (setting [3]) and 33.1 µM in test [2] (table values).

Turning to `Cc1nc2sc3c(c2c(-c2ccc(N(C)C)nc2)c1C(OC(C)(C)C)C(=O)O)CCCC3` (stereo not drawn) [Example 29], the IC50 in test [1] (setting [3]) is 5.73 µM; in test [2] (table values), 64.6 µM.

In the case of `CCOC(C(=O)O)c1c(C)nc2sc3c(c2c1-c1ccc2scnc2c1)CCCC3` (stereo not drawn) [Example 31], the IC50 in test [1] (setting [3]) is 6.66 µM; in test [2] (table values), above 100 µM.

These data come from patent publication US9447116B2, “Inhibitors of HIV replication” (priority 2010, dated 2016).
